These results are taken from patent publication US8916592B2, “Malononitrile compounds” (Merial Limited, priority 2005, dated 2014).

Holding throughout (format): in vivo
Data set [1] deals with Mediterranean Fruitfly (Ceratitis capitata). As to the kind of experiment: Activity against Mediterranean Fruitfly (eggs sprayed in microtiterplates). The settings on record: 144 h, 6 days, untreated controls 0% mortality. Here is the method: The active compounds were formulated in 1:3 DMSO:water. 50 to 80 eggs were placed into microtiterplates filled with 0.5% agar-agar and 14% diet in water. The eggs were sprayed with 5 μl of the test solution, the plates were sealed with pierced foils and kept at 27-29° C. and 75-85% humidity under fluorescent light for 6 days. Mortality was assessed on the baswas of the agility of the hatched larvae. Tests were replicated 2 times.

Data set [2] relates to Boll Weevil (Anthonomus grandis). Briefly: Activity against Boll Weevil (eggs sprayed in microtiterplates). The settings on record: 3 to 5 days, untreated controls 0% mortality. The method, then:
The active compounds were formulated in 1:3 DMSO:water. 10 to 15 eggs were placed into microtiterplates filled with 2% agar-agar in water and 300 ppm formaline. The eggs were sprayed with 20 μl of the test solution, the plates were sealed with pierced foils and kept at 24-26° C. and 75-85% humidity with a day/night cycle for 3 to 5 days. Mortality was assessed on the basis of the remaining unhatched eggs or larvae on the agar surface and/or quantity and depth of the digging channels caused by the hatched larvae. Tests were replicated 2 times.

In data set [3] the test system is Vetch Aphid (Megoura viciae). Briefly: Activity against Vetch Aphid (sprayed bean leaf disks). The settings on record: foliar, 144 h, adult aphids, 6 days, untreated controls 0% mortality. Here is the method:
The active compounds were formulated in 1:3 DMSO:water. Bean leaf disks were placed into microtiterplates filled with 0.8% agar-agar and 2.5 ppm OPUS™. The leaf disks were sprayed with 2.5 μl of the test solution and 5 to 8 adult aphids were placed into the microtiterplates which were then closed and kept at 22-24° C. and 35-45% under fluorescent light for 6 days. Mortality was assessed on the basis of vital, reproduced aphids. Tests were replicated 2 times.

Data set [4] deals with Brown Planthopper (Nilaparvata lugens). Briefly: Activity against Brown Planthopper (sprayed rice seedlings). The settings on record: 300 ppm, 10 adults, recorded after 24, 72 and 120 hours. Here is the method: The active compounds were formulated in 50:50 acetone:water. Potted rice seedlings were sprayed with 10 ml test solution, air dried, placed in cages and inoculated with 10 adults. Percent mortality was recorded after 24, 72 and 120 hours.

Some results are limits rather than exact numbers.

In the case of `N#CC(C#N)(CSC(F)(F)F)Cc1ccc(Cl)c(Cl)c1` [Compound I-1, 2-(3,4-dichloro-benzyl)-2-trifluoromethylsulfanylmethyl-malononitrile], the mortality at 2500 ppm in data set [1] and in data set [2] was more than 75% throughout.
Take `N#CC(C#N)(CCSC(F)(F)F)Cc1ccc(Cl)c(Cl)c1` [Compound I-7, 2-(3,4-Dichloro-benzyl)-2-(2-trifluoromethylsulfanyl-ethyl)-malononitrile]: the mortality at 2500 ppm in data set [1], in data set [2] and in data set [3] was more than 75% in each case.
For `N#CC(C#N)(CC[S+]([O-])C(F)(F)F)Cc1ccc(Cl)c(Cl)c1` (stereo not shown) [Compound I-15, 2-(3,4-Dichlorobenzyl)-2-(2-trifluoromethanesulfinyl-ethyl)-malononitrile], the mortality at 2500 ppm in data set [1] and in data set [2] was more than 75% in each case.
Regarding `N#CC(C#N)(CCS(=O)(=O)C(F)(F)F)Cc1ccc(Cl)c(Cl)c1` [Compound I-19, 2-(3,4-Dichlorobenzyl)-2-(2-trifluoromethanesulfonyl-ethyl)-malononitrile], the mortality at 2500 ppm in data set [1] and in data set [2] was more than 75% in each case.
Take `CC(C)(C)c1cc(CC(C#N)(C#N)CCSC(F)(F)F)on1` [Compound I-35]: the mortality (in general, the share of the test organisms that died) in data set [4] was “over 90%”.
